In patent publication US11963939B2, “Use of N-acetylcysteine to treat central nervous system disorders” (Neuronasal, Inc., priority 2017, dated 2024):

Assays:
[1] = system: primary cortical neurons; assay: cells; assay type: cell-based, mouse; conditions: Mus musculus, Primary cortical neuron; 100 μM hemin, primary cortical neurons; read-out: EC50 for reduction of hemin-induced toxicity/ferroptosis
Method: Primary cortical neuronal cultures: Primary cortical neurons were collected from embryonic (E15) CD1 mice. The cortices of the mice were dissected, homogenized, and plated in minimum essential medium containing 10% fetal bovine serum (FBS), 5% horse serum, and 1% penicillin/streptomycin in 96-well plates, 6-well plates, or 10-cm dishes. The neurons were maintained at 37° C. with 5% CO2. All experiments were conducted 24 hours after plating.
In vitro ICH model: Ferroptosis is a type of programmed cell death that is dependent on iron, and is characterized by the accumulation of lipid peroxides. Ferroptosis is genetically and biochemically distinct from other forms of regulated cell death such as apoptosis. Ferroptosis is initiated by the failure of the glutathione-dependent antioxidant defenses, resulting in unchecked lipid peroxidation and eventual cell death.
Cell death was induced in primary cortical neurons by treating the neurons with hemin, a blood breakdown product. For the neuroprotection studies, cells were treated with hemin (100 μM) in the presence of NAC (0.1 mM to 1mM), 6-hydroxy-2,5,7,8-tetramethylchroman-2-carboxylic acid (trolox; 0.1 μM to 100 μM), β-carotene (0.1 μM to 100 μM) α-lipoic acid (0.01 mM to 2 mM), glutathione ethyl ester (1 mM to 10 mM), oxothiazolidine-4-carboxylate (1 mM to 10 mM), cystamine (0.1 μM to 10 μM), or nordihydroguaiaretic acid (0.1 μM to 10 μM). Cell viability was analyzed 24 h after treatment. The cells were rinsed with warm phosphate-buffered saline (PBS) and assessed using an MTT assay. The fidelity of the MTT assays in measuring viability was verified by calcein-AM/ethidium homodimer-1 staining (Live/Dead assay).
The ability of NAC to protect cells was investigated in a hemin model of hemorrhagic stroke. The in vitro model of ICH involved the administration of hemin, a breakdown product of hemoglobin from lysed blood, to trigger cell death. Treatment of primary cortical neurons with 100 μM hemin induced widespread cell death through a ferroptotic mechanism, which was quantified with MTT and qualitatively observed using live/dead staining. Living cells were labeled with calcein-AM, and dead cells were labeled with ethidium homodimer. […] Scale bars: 100 μm.
A systematic pharmacological screening of oxidized lipid species inhibitors in the context of hemin-induced cell death was performed in primary cortical neurons. Primary cortical neurons were co-treated with hemin and a non-specific or enzymatic lipid peroxidation inhibitor. The MTT assays were performed 18 h following the co-treatment.

[2] = Total iron levels in brain of ICH mice by X-ray fluorescence; assay type: in vivo, mouse; conditions: 7 days
Text: In vivo metal distribution imaging analysis by X-ray fluorescence: Seven days following collagenase-induced ICH, mice were euthanized and perfused with trace metal-free PBS. The brains were removed from the mice and flash frozen. Tissue samples were cut into 20 μm-thick sections and deposited onto 4 μm-thick Ultralene® films. The iron and zinc contents of the tissue samples were imaged using X-ray fluorescence microscopy (XFM). X-ray fluorescence spectra were collected using an X-ray excitation energy of 11 keV and a beam size of 9 μm (vertical)×17 μm (horizontal) in 15-μm steps, with an integration time of 7 sec/pixel. The intensity for each metal was quantified by integrating the area under the curve for the respective peak in the XRF spectrum (iron Kα=6405 eV and zinc Kα=8637 eV).
National Institute of Standards and Technology thin film standard reference materials 1832 and 1833 were used to calculate concentrations and to normalize for any differences between the multiple beam time runs required to collect the data. Molar concentrations were determined by dividing the […] values by the product of the volume of X-ray beam on the sample (area×thickness of the sample), the density of tissue (estimated to be 0.9 g/cm^3), and the molecular weight of the element.
The ability of NAC to affect total metal levels in the brain was evaluated. […]

[3] = system: ALOX5; assay: ALOX5 mRNA levels in hemin-treated primary cortical neurons (RT-PCR); assay type: cell-based, mouse; conditions: NAC 1 mM
Method: Quantitative real-time PCR: Total RNA was prepared using a NucleoSpin® RNA II kit. Duplex real-time PCR reactions were performed with gene expression assays using 6-carboxyfluorescein-labeled probes for ALOX5 (Mm 01182747_m1) and ALOX5AP (Mm 01218551_m1). Expression levels were normalized to β-actin gene expression levels, which were determined with a VIC™-labeled probe. All experiments were performed using a real-time PCR system.
The abilities of hemin and NAC to induce increases in ALOX5 and ALOX AP mRNA levels were examined. […] Consistent with the protein data (FIG. 17), hemin induced increases in ALOX AP and ALOX5 mRNA levels in a time-dependent manner.

[4] = system: lipid protein adducts; assay: Hemin-induced lipid protein adduct formation (Bt-AA, streptavidin-HRP Western blot) in primary neurons; assay type: cell-based, mouse
Method: Electrophilic attack by ALOX5 products could alter cellular protein-mediated signaling to trigger cell death. Arachidonic acid (AA) tagged with biotin (Bt-AA) was used to monitor the formation of covalent protein adducts. To test whether hemin was sufficient to catalyze the formation of protein-reactive lipid species, primary neurons were treated with hemin at concentrations of 5 μM-50 μM for 4 h. Lipid protein adducts were detected by Western blots probed with Streptavidin-HRP. Bt-AA incorporation into protein increased with increasing concentrations of hemin, and significant lipid protein adducts were detected at 50 μM hemin. […] The blot is representative from replicates of three experiments. The arrow indicates the decrease in lipid protein adduct formation.

[5] = system: total glutathione; assay: Total glutathione levels in striatum of collagenase-infused ICH mice by HPLC; assay type: in vivo, mouse; conditions: ICH mice after NAC treatment
Text: Total glutathione levels were unchanged after NAC treatment in ICH mice. […] FIG. 29 illustrates an experimental design to study the effect of NAC on total glutathione levels in the striatum of a collagenase infusion mouse model of ICH.

CC(=O)N[C@@H](CS)C(=O)O [NAC, N-acetylcysteine]
EC50 [1]: 500 µM | Iron levels and iron distribution in brain following ICH [2]: no effect on iron levels or iron distribution | Hemin-induced ALOX5 expression [3]: blocked the expression of ALOX5 | AA-protein adduct formation ([4]; non-protective doses: NAC 0.1 mM, vitamin E 1 μM, zileuton 1 μM): did not decrease AA-protein adduct formation | Lipid protein adduct formation ([4]; protective doses: NAC 1 mM, vitamin E 10 μM, zileuton 10 μM): decreased lipid protein adduct formation | Total glutathione levels in striatum [5]: unchanged
